According to patent publication US20220282304A1, “SAME-SAMPLE ANTIBIOTIC SUSCEPTIBILITY TEST AND RELATED COMPOSITIONS, METHODS AND SYSTEMS” (CALIFORNIA INSTITUTE OF TECHNOLOGY, priority 2021, published 2022):

Test system: Escherichia coli K12
Experiment: Digital same-sample filtration AST at four exposure durations (Example 8)
Format: cell-based
Conditions: for Both (number of wells) / Empty (number of wells) / Extracellular only (number of wells) / Intracellular only (number of wells) / Intact (most likely number of cells) / Killed (most likely number of cells): Treated 1.0 μg ETP/mL; for Both (number of wells) / Empty (number of wells) / Extracellular only (number of wells) / Intracellular only (number of wells): 12 partitions, qPCR; for Intact (most likely number of cells) / Killed (most likely number of cells): assuming one cell per non-empty sample
Experimental: The inoculum was small enough that no detectable difference in the sample's optical density at 600 mm (OD600) was detectable by a spectrophotometer with a sensitivity of 0.01 absorbance units. After an incubation at 37° C., the media became turbid with an OD600 of 0.34 absorbance units after 3.08 hours of incubation.
In this experiment, the number and volume of sample partitions was restricted, for logistical reasons, to 96 partitions 10 μL in volume, specifically the wells of a 96-well plate. A goal was chosen of having a >98% chance of ending up with at least 48 empty partitions. When all partitions are the same volume, the following formula relates the expected number of empty partitions, the partition volume, and the density of cells.
N is the total number of partitions, n is the number of empty partitions, V is the partition volume, D is the density of cells, and t is a threshold probability chosen by the practitioner. In order to achieve digital sample partitioning with the available 96-well plate, each 10 μL sample of the specimen needed to contain between 0.02 and 2.5 cells on average. In this experiment, a density of 1 cells per sample were targeted. Due to systematic bias in the conversion of OD600 to cell density, the actual density achieved in the exposure was closer to 0.281 cells per sample. The batch culture specimen itself was diluted to a density of 28.1 CFU/mL (0.0281 cells/μL) to achieve the target cells/sample density.
To begin the AST protocol, the contrived clinical specimen (containing 28.1 CFU/mL) was physically partitioned into the 96 samples by transferring 10 μL of the specimen, in 96 separate transfers (actually […] with a multichannel pipette), to each well of a separable 96-well microtiter plate. Then, the entire plate was sealed with a RNase/DNase-free plastic, adhesive sealing membrane.
Each well of the 96-well microtiter plate contained 15 μL of Mueller-Hinton Broth (MHB) growth media, placed there before the specimen was partitioned. Half of the wells (48) contained 0 μg/mL of dissolved ETP antibiotic and served as reference condition antibiotic exposures. The other half of the wells contained 1.67 μg/mL of ETP (for a final concentration of 1.0 μg/mL) and served as 48 treated condition antibiotic exposures. The separable plate comprised 4 detachable sections bearing 3 columns and 8 rows of wells.
The treated and reference conditions were arranged so that each of the four groups of wells contained 12 treated and 12 reference conditions. In total, there would eventually be eight experimental conditions: 4 exposure durations of 0, 30, 60, and 120 min, each with 12 treated and 12 reference conditions.
Immediately after the specimen had been partitioned, one section (24 wells in total) of the separable 96-well plate was detached to serve as the 0-minute set of conditions. The rest of the separable 96-well plate was incubated at 37° C. Then, the following step was repeated for each time point of 0, 30, 60, and 120 minutes.
The entire volume of each antibiotic exposure was transferred to a Millipore® 96-well sterile polystyrene MultiScreenHTS® filter plate (Millipore-Sigma MSGVS2210). Each well of the filter plate contained a hydrophilic polyvinylidene fluoride (PVDF) filter membrane with a 0.22 μm pore size. A 96-well polypropylene microtiter plate was affixed to the bottom of the filter plate. The filter plate was promptly centrifuged at 2200 relative centrifugal force for 3 minutes to speed the passage of the antibiotic exposure sample through the filter and into 96-well microtiter plate. The collected fluid was called the “filtrate.” […]

**Q.** With C[C@@H](O)[C@H]1C(=O)N2C(C(=O)O)=C(S[C@@H]3CN[C@H](C(=O)Nc4cccc(C(=O)O)c4)C3)[C@H](C)[C@H]12 [ETP, ertapenem] as the compound, how does the susceptibility call (1.0 μg/mL ETP, overall p-value vs 0.005) read?
**A.** Its susceptibility call is “susceptible”.

**Q.** And the “Both (number of wells)” value (exposure duration 0 min)?
**A.** The value was 0.

**Q.** What about the “Empty (number of wells)” value (exposure duration 0 min) of the same compound?
**A.** The value was 12.

**Q.** What about the “Extracellular only (number of wells)” value (exposure duration 0 min) of the same compound?
**A.** Its value is 0.

**Q.** What about the “Intracellular only (number of wells)” value (exposure duration 0 min) of the same compound?
**A.** Its value is 0.

**Q.** What about the “Intact (most likely number of cells)” value (exposure duration 0 min) of the same compound?
**A.** Its value is 0.

**Q.** And the “Killed (most likely number of cells)” value (exposure duration 0 min)?
**A.** Its value is 0.

**Q.** What about the “Both (number of wells)” value (exposure duration 30 min) of the same compound?
**A.** Its value is 0.

**Q.** And the “Empty (number of wells)” value (exposure duration 30 min)?
**A.** Its value is 7.

**Q.** And the “Extracellular only (number of wells)” value (exposure duration 30 min)?
**A.** Its value is 4.

**Q.** What about the “Intracellular only (number of wells)” value (exposure duration 30 min) of the same compound?
**A.** The value was 1.

**Q.** And the “Intact (most likely number of cells)” value (exposure duration 30 min)?
**A.** Its value is 1.

**Q.** And the “Killed (most likely number of cells)” value (exposure duration 30 min)?
**A.** The value was 4.

**Q.** What about the “Both (number of wells)” value (exposure duration 60 min) of the same compound?
**A.** The value was 0.

**Q.** What about the “Empty (number of wells)” value (exposure duration 60 min) of the same compound?
**A.** The value was 8.

**Q.** What about the “Extracellular only (number of wells)” value (exposure duration 60 min) of the same compound?
**A.** Its value is 4.

**Q.** And the “Intracellular only (number of wells)” value (exposure duration 60 min)?
**A.** The value was 0.

**Q.** And the “Intact (most likely number of cells)” value (exposure duration 60 min)?
**A.** The value was 0.

**Q.** What about the “Killed (most likely number of cells)” value (exposure duration 60 min) of the same compound?
**A.** The value was 4.

**Q.** And the “Both (number of wells)” value (exposure duration 120 min)?
**A.** Its value is 0.

**Q.** What about the “Empty (number of wells)” value (exposure duration 120 min) of the same compound?
**A.** The value was 8.

**Q.** And the “Extracellular only (number of wells)” value (exposure duration 120 min)?
**A.** Its value is 4.

**Q.** And the “Intracellular only (number of wells)” value (exposure duration 120 min)?
**A.** The value was 0.

**Q.** And the “Intact (most likely number of cells)” value (exposure duration 120 min)?
**A.** Its value is 0.

**Q.** What about the “Killed (most likely number of cells)” value (exposure duration 120 min) of the same compound?
**A.** Its value is 4.
